In patent US20160303127A1, “COMBINATION THERAPY WITH C-MET AND EGFR ANTAGONISTS” (Genentech, Inc., priority 2008, published 2016):
Several values for one entry are separate records, joined by “and”; a condition that tells them apart may be missing. Equal entries are not always repeated. Entries after “also recorded” stand apart in the source; their conditions may differ.

Legend:
NCI-H596 cells = test: NCI-H596 cell viability assay (Celltiter-Glo) with TGFα +/- HGF; assay type: cell-based, human
Method: Cells: NCI-H596 cells were obtained from the American Type Culture Collection (ATCC) and were maintained in RPMI 1640 supplemented with 10% fetal bovine serum (FBS; Sigma, St. Louis, Mo.), and 2 mM L-glutamine. Cell assay media was changed as described below depending upon the experiment.
Therapeutics and Growth factors: Erlotinib and MetMAb were from Genentech, Inc., as described above. HGF and TGFα were generated at Genentech.
Cell Viability Assays: For cell viability assays, cells were plated in quadruplicate at 1×10^3 cells per well in 384-well plates in RPMI containing 0.5% FBS (assay medium) overnight, prior to stimulation with assay medium containing 3 nM TGF-a+/−HGF. Erlotinib was added at multiple concentrations and 72 hours later, cell viability was measured using the Celltiter-Glo Luminescent Cell Viability Assay (Promega, Madison, Wis.).
To determine whether activation of the c-met pathway could change the response of NCI-N596 cells to erlotinib, cells were stimulated with TGFα, treated with erlotinib and/or HGF, then cell viability was assayed.

c-met = molecular target: T1, c-met (Homo sapiens, UniProt P08581, DEL964-1010); test: c-met phosphorylation in NCI-H596 hu-HGF-Tg-SCID xenograft tumors (IP/immunoblot); assay type: in vivo, mouse xenograft; conditions: MetMAb 30 mg/kg 24 h, erlotinib 150 mg/kg 6 h prior to harvest, average of 5 animals
T1 construct: endogenous in cells; host or cells: NCI-H596 (human NSCLC) cells grown as xenograft tumours in hu-HGF-Tg-SCID mice; tumour lysate, IP and immunoblot
Method: (§1) Tumors were allowed to grow to 200-300 mm^3 prior to treatment. Dosing was performed as described in Table 8. Briefly, MetMAb (30 mg/kg) or MetMAb buffer was dosed at time zero hours (0 hr) and methylcellulose tween vehicle (MCT) or erlotinib (150 mg/kg) was dosed at time 18 hours (18 hr). Mice were euthanized and tumors and plasma collected at time 24 hours (24 hr). Tumors were snap frozen in liquid nitrogen and then kept at −70° C. until they were processed for immunoprecipitation and immunoblotting.
Immunoprecipitations and Immunoblotting: To process tumors for protein analysis, tumors were first homogenized using a glass dounce with lysis buffer (Cell Signaling Technology, Inc., Danvers, Mass.), supplemented with 1 mM PMSF, additional protease inhibitor cocktail, and phosphatase inhibitor cocktail I and II (Sigma, Inc., St. Louis, Mo.). Lysates were incubated on ice for one hour and then centrifuged at 14,000×g for five minutes and supernatants collected. Protein concentrations were determined using the BCA™ Protein Assay Kit (Pierce, Inc., Rockford, Ill.) and samples were immunoblotted. […] For direct Western blots, 50 μg of tumor lysate was loaded per lane. Samples were then analyzed by SDS-PAGE and immunoblotting. […] Goat-anti-mouse-IRdye800 (Rockland Immunochemicals, Inc., Gilbertsville, Pa.) and goat-anti-rabbit-AlexaFluor680 (Molecular Probes, Inc., Eugene, Oreg.) were used as secondary antibodies. Immunoblots were imaged and phospho-protein levels were quantified and normalized to total protein levels (e.g. pEGFR over total EGFR) using an Odyssey imager (LI-COR Biosciences, Lincoln, Nebr.).
Twenty hu-HGF-Tg-SCID mice were inoculated with NCI-H596 cells and tumors established, as previously described. Once tumors reached sizes between 200-300 mm^3, mice were evenly grouped into four groups based upon tumor volume and dosing was begun (Table 8). MetMAb was dosed 24 hours prior to tumor harvest whereas erlotinib was dosed 6 hours prior to harvest. Dosing times were selected based on the relative half-life of each therapeutic agent. […]

ERK-1/2 = test: phospho-ERK-1/2 in NCI-H596 hu-HGF-Tg-SCID xenograft tumors (immunoblot); assay type: in vivo, human; conditions: MetMAb 30 mg/kg 24 h, erlotinib 150 mg/kg 6 h prior to harvest, average of 5 animals
Method: as §1
Immunoprecipitations and Immunoblotting: To process tumors for protein analysis, tumors were first homogenized using a glass dounce with lysis buffer (Cell Signaling Technology, Inc., Danvers, Mass.), supplemented with 1 mM PMSF, additional protease inhibitor cocktail, and phosphatase inhibitor cocktail I and II (Sigma, Inc., St. Louis, Mo.). Lysates were incubated on ice for one hour and then centrifuged at 14,000×g for five minutes and supernatants collected. Protein concentrations were determined using the BCA™ Protein Assay Kit (Pierce, Inc., Rockford, Ill.) and samples were immunoblotted. […] Samples were then analyzed by SDS-PAGE and immunoblotting. […] Immunoblots were imaged and phospho-protein levels were quantified and normalized to total protein levels (e.g. pEGFR over total EGFR) using an Odyssey imager (LI-COR Biosciences, Lincoln, Nebr.). […]

C#Cc1cccc(Nc2ncnc3cc(OCCOC)c(OCCOC)cc23)c1 [erlotinib, N-(3-ethynylphenyl)-6,7-bis(2-methoxyethoxy)-4-quinazolinamine]
sensitivity (response) of cells to erlotinib in the presence of HGF (NCI-H596 cells; TGFα plus HGF 0.5 to 50 ng/ml, 72 hours): Reduction in relative response; also recorded: dramatically reduced in a dose-dependent manner; also recorded: attenuated response | cell viability when grown in the presence of erlotinib and TGFα (NCI-H596 cells; TGFα, no HGF): reduced cell viability | pMet/total Met (c-met phosphorylation) (c-met): did not reduce c-met phosphorylation | pMet/total Met (c-met phosphorylation) (c-met; listed as Erlotinib): 157 (±103.4) % of vehicle control | pERK1/2/total ERK1/2 (ERK-1/2; listed as Erlotinib): 39% (+/−8.9%) % of vehicle control and 39 (±8.9) % of vehicle control

B1: MetMAb: Anti-c-met monovalent monoclonal antibody MetMAb (rhuOA5D5v2) (WO2007/063816) (antibody, chains of the INN, looked up, V domains shown)
VH: EVQLVESGGGLVQPGGSLRLSCAASGYTFTSYWLHWVRQAPGKGLEWVGMIDPSNSDTRFNPNFKDRFTISADTSKNTAYLQMNSLRAEDTAVYYCATYRSYVTPLDYWGQGTLVTVSS
VL: DIQMTQSPSSLSASVGDRVTITCKSSQSLLYTSSQKNYLAWYQQKPGKAPKLLIYWASTRESGVPSRFSGSGSGTDFTLTISSLQPEDFATYYCQQYYAYPWTFGQGTKVEIK
modifications: one-armed
effect of MetMAb on erlotinib sensitivity (cell viability) (NCI-H596 cells; TGFα and HGF (50 ng/ml), MetMAb 1 μM, varying erlotinib): dramatically restored erlotinib sensitivity | pMet/total Met (c-met phosphorylation) (c-met): 12% (+/−3.6%) % of vehicle control and 12 (±3.5) % of vehicle control | pERK1/2/total ERK1/2 (ERK-1/2): 72% (+/−40.3%) % of vehicle control and 72 (±40.3) % of vehicle control
